Experimental data reported in patent publication US20120270237A9, “METHODS FOR THE IDENTIFICATION OF KINASE INTERACTING MOLECULES AND FOR THE PURIFICATION OF KINASE PROTEINS” (Cellzone AG, priority 2009, published 2012).

Biological target: T1, MAP3K5 (Homo sapiens, UniProt Q99683)
T1 sequence (Q99683 1-1374): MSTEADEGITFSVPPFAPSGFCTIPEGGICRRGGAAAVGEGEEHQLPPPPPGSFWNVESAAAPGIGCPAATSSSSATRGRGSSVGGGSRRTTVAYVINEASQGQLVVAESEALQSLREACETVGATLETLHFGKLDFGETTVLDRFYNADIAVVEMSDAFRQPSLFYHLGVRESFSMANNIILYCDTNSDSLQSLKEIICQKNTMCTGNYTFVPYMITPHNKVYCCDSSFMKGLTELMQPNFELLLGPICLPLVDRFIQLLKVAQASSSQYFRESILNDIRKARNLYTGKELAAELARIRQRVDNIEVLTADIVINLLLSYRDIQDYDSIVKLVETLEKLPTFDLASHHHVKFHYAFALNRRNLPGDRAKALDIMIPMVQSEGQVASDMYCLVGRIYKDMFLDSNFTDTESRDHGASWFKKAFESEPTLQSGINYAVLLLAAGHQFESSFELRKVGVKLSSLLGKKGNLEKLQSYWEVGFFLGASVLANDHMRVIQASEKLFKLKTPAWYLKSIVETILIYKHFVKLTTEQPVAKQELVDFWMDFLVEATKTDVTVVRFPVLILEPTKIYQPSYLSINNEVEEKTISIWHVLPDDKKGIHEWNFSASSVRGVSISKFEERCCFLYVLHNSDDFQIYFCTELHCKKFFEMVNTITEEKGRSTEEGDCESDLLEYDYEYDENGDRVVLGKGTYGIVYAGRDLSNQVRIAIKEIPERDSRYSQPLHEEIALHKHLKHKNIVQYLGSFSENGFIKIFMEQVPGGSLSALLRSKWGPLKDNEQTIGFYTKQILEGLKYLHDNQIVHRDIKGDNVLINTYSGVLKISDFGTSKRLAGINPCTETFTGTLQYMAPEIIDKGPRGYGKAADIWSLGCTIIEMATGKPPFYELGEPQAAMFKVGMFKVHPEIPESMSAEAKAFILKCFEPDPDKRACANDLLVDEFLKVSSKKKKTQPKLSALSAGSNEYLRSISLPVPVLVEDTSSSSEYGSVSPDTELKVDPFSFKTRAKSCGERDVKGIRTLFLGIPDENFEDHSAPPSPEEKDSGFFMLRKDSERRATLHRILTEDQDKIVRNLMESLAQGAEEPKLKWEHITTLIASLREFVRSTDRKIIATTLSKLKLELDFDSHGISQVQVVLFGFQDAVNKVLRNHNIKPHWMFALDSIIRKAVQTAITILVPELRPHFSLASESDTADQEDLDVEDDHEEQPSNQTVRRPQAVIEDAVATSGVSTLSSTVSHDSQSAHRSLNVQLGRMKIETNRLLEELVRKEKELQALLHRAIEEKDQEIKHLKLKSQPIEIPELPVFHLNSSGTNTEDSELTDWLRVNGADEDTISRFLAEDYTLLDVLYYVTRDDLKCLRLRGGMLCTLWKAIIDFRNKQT
Assay: Kinobeads competition binding, HL60 cell lysate
Set-up: endogenous in cells; host or cells: HL60 cell lysate
Details: 10 μM free compound
Protocol: To one aliquot of cell lysate 10 μM of the free compound (FIG. 3, CZC31326) was added and allowed to bind to proteins in the lysate. Then the affinity matrix with the immobilized compound (Example 1) was added to capture proteins that were not interacting with the previously added free compound. Beads were separated from the lysate and bead bound proteins were eluted in SDS sample buffer and subsequently separated by SDS-Polyacrylamide gel electrophoresis (FIG. 4). Suitable gel bands were cut out and subjected to in-gel proteolytic digestion with trypsin. The second lysate aliquot was processed identically, however no free compound was added (DMSO solvent control). Peptides originating from samples 1 and 2 were labeled with iTRAQ reagents (iTRAQ 114 and iTRAQ 117) and the combined samples were analyzed with a nano-flow liquid chromatography system coupled online to a tandem mass spectrometer (LC-MS/MS) experiment followed by iTRAQ reporter ion quantification in the MS/MS spectra (Ross et al., 2004. Mol. Cell. Proteomics 3(12):1154-1169). Further experimental protocols can be found in WO2006/134056 and a previous publication (Bantscheff et al., 2007. Nature Biotechnology 25, 1035-1044). Sepharose-beads with the immobilized compound (100 μl beads per pull-down experiment) were equilibrated in lysis buffer and incubated with a cell lysate sample containing 50 mg of protein on an end-over-end shaker (Roto Shake Genie, Scientific Industries Inc.) for 2 hours at 4° C. […] The iTRAQ reagents are a set of multiplexed, amine-specific, stable isotope reagents that can label peptides on amino groups in up to four different biological samples enabling simultaneous identification and quantitation of peptides. […] Relative protein quantitation was performed using peak areas of iTRAQ reporter ion signals essentially as described in an earlier publication (Bantscheff et al., 2007. Nature Biotechnology 25, 1035-1044).

For CS(=O)(=O)Nc1ccccc1Nc1nc(Nc2cccc(OCCN)c2)ncc1Cl [CZC31326, N-(2-(2-(3-(2-aminoethoxy)phenylamino)-5-chloropyrimidin-4-ylamino)phenyl)methanesulfonamide], the inhibition at 10 µM was 88.4%.
